Reference: ChEMBL document CHEMBL1681667, “Structure-activity relationship studies of sphingosine-1-phosphate receptor agonists with N-cinnamyl-β-alanine moiety” (Bioorg Med Chem Lett, 2011)
pEC50: −log10 of the molar value.

What was measured:
Mus musculus = assay: Immunomodulatory activity in po dosed mouse assessed as peripheral blood lymphocyte lowering activity after 4 hrs; format: functional
[1] = target: Sphingosine 1-phosphate receptor 3 (Homo sapiens, UniProt Q99500); assay: Agonist activity at human S1P3 receptor expressed in CHO cells assessed as intracellular calcium levels; format: functional, cell-based
Sphingosine 1-phosphate receptor 3, sequence (Q99500 whole entry): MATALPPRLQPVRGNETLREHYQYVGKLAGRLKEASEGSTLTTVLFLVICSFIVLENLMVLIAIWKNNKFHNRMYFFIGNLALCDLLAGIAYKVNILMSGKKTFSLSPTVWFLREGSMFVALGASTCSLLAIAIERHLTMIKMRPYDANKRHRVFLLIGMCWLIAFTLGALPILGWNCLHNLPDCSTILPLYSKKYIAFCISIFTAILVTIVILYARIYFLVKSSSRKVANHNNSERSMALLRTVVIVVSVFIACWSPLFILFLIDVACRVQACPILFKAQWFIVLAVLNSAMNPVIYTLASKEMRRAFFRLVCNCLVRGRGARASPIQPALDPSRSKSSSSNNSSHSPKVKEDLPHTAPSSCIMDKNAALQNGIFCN

[2] = target: Sphingosine 1-phosphate receptor 1 (Homo sapiens, UniProt P21453); assay: Agonist activity at human S1P1 receptor expressed in CHO cells assessed as intracellular calcium levels; format: functional, cell-based
Sphingosine 1-phosphate receptor 1, sequence (P21453 whole entry): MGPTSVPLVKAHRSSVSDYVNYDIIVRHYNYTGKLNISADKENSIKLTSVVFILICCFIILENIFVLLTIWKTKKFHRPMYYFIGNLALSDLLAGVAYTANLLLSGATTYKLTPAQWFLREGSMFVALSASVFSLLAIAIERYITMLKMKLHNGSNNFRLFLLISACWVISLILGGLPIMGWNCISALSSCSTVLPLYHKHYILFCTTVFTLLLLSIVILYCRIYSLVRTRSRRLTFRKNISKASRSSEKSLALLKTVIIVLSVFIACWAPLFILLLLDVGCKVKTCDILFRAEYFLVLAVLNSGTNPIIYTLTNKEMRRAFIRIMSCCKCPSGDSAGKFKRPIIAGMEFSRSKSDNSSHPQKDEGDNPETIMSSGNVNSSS

[3] = Half life in rat at 30 mg/kg, po; format: ADME, organism-based; parameters: dose 30 mg/kg, route oral; settings: in vivo
[4] = target: Sphingosine 1-phosphate receptor 5 (Homo sapiens, UniProt Q9H228); assay: Agonist activity at human S1P5 receptor expressed in CHO cells assessed as intracellular calcium levels; format: functional, cell-based
Sphingosine 1-phosphate receptor 5, sequence (Q9H228 whole entry): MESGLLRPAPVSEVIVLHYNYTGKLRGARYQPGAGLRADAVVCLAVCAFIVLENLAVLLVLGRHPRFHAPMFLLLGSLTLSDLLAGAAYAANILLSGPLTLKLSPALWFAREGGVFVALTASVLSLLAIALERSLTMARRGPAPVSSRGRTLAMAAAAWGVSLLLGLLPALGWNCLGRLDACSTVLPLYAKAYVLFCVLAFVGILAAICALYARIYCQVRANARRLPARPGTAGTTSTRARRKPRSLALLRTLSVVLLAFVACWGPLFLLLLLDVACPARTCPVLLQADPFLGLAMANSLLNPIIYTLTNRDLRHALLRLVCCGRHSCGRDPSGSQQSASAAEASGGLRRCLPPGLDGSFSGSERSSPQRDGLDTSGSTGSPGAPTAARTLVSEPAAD

[5] = target: Sphingosine 1-phosphate receptor 2 (Homo sapiens, UniProt O95136); assay: Agonist activity at human S1P2 receptor expressed in CHO cells assessed as intracellular calcium levels; format: functional, cell-based
Sphingosine 1-phosphate receptor 2, sequence (O95136 whole entry): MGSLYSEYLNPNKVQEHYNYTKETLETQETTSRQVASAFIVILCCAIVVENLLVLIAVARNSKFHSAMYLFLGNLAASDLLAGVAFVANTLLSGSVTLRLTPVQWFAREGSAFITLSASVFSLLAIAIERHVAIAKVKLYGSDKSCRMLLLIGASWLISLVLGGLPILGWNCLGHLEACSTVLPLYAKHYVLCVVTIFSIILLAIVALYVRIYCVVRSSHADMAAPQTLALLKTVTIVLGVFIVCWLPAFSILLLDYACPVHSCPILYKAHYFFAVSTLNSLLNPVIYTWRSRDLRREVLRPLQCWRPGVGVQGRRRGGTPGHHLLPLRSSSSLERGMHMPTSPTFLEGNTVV

[6] = Cmax in rat at 30 mg/kg, po; format: ADME, organism-based; parameters: dose 30 mg/kg, route oral; settings: in vivo
[7] = AUC (infinity) in rat at 30 mg/kg, po; format: ADME, organism-based; parameters: time infinity, dose 30 mg/kg, route oral; settings: plasma

Compound | ED50 (Mus musculus) [mg/kg] | pEC50 [1] | pEC50 [2] | half-life [3] [h] | pEC50 [4] | pEC50 [5] | Cmax [6] [ng/mL] | AUC(0-inf) [7] [µg·h/mL]
C/C(=C\CNCCC(=O)O)c1ccc(OCCCc2ccccc2)cc1 | 0.69 | < 5.00 | 7.68 | 7.4 |  |  |  | 
O=C(O)CCNCCCc1ccc(OCCCCCc2ccccc2)cc1 | 26 | 5.38 | 6.80 |  | 6.77 | < 5.00 |  | 
O=C(O)CCN1CC=C(c2ccc(OCCCc3ccccc3)cc2)CC1 | 1.4 | 5.92 | 7.35 |  |  |  |  | 
C/C(=C\c1ccc(OCCCc2ccccc2)cc1)CNCCC(=O)O |  | 5.72 | 7.48 |  |  |  |  | 
O=C(O)CCNCCCc1ccc(OCCCCCCc2ccccc2)cc1 |  | < 5.00 | 5.57 |  |  |  |  | 
C/C(=C/CNCCC(=O)O)c1ccc(OCCCc2ccccc2)cc1 |  | < 5.00 | 6.03 |  |  |  |  | 
O=C(O)CCNCCCc1ccc(OCCCCc2ccccc2)cc1 |  | < 5.00 | 5.82 |  |  |  |  | 
O=C(O)CCNC/C=C/c1ccc(OCCCc2ccccc2)cc1 | 4.6 | 5.48 | 7.15 |  |  |  |  | 
O=C(O)CCN1CCC(c2ccc(OCCCc3ccccc3)cc2)CC1 |  | < 5.00 | 5.80 |  |  |  |  | 
O=C(O)CCNCCCc1ccc(OCCCc2ccccc2)cc1 |  | 5.05 | 5.59 | 3.8 |  |  | 28000 | 174
O=C(O)CCN1CCC/C(=C\c2ccc(OCCCc3ccccc3)cc2)C1 |  | < 5.00 | 5.82 |  |  |  |  | 
